Data: publication PMC11455950, “Effects of SZV-2649, a new multiple ion channel inhibitor mexiletine analogue” (Scientific Reports, 2024)

How the values were obtained:
[1] = system: late sodium current (INaL); experiment: Whole-cell patch-clamp, late sodium current in dog ventricular myocytes; format: cell-based; conditions: 10 µM, dog left ventricular myocytes
Procedure: (§1) The effects of SZV-2649 on transmemrane ionic currents were investigated in dog cardiac myocytes after a 5-minute superfusion of the drug.
The late sodium current (INaL) was investigated by application of 2-second-long test pulses to -20 mV from the holding potential of -120 mV with the pulsing cycle length of 5 s. In the internal (pipette) solution, KCl was replaced by 125 mM CsCl to block potassium currents and the external solution contained 1 µM nisoldipine, 0.5 µM HMR-1556 and 0.1 µM dofetilide in order to block ICaL, IKs and IKr currents, respectively.
(§2) Ventricular myocytes from Beagle dogs were enzymatically dissociated as described in detail previously. A single droplet of cell suspension was placed in a transparent recording chamber mounted on the stage of an inverted microscope (Olympus IX51, Olympus, Tokyo, Japan), and individual myocytes were allowed to settle and adhere to the chamber bottom for at least 5–10 min before superfusion was initiated and maintained by gravity. Only rod-shaped cells with clear striations were used. […]
(§3) The membrane currents were recorded with Axopatch-200B amplifiers (Molecular Devices, Sunnyvale, CA, USA) by means of the whole-cell configuration of the patch-clamp technique. […]

[2] = system: L-type inward calcium current (ICaL); experiment: Whole-cell patch-clamp, L-type calcium current in dog ventricular myocytes; format: cell-based; conditions: 10 µM, dog left ventricular myocytes
Procedure: as §1
The L-type inward calcium current (ICaL) was measured from a holding potential of -80 mV with a 40 ms prepulse to -40 mV to inactivate INa (see inset of Fig. 3B). Test pulses of 400 ms duration from − 35 mV to 55 mV were applied with a pulsing cycle length of 3 s. In the internal (pipette) solution, KCl was replaced by 125 mM CsCl to block potassium currents.
as §2, §3
The L-type calcium current (ICaL) was recorded in HEPES-buffered Tyrode’s solution supplemented with 3 mM 4-aminopyridine. […]

[3] = system: slow delayed rectifier potassium current (IKs); experiment: Whole-cell patch-clamp, slow delayed rectifier potassium current in dog ventricular myocytes; format: cell-based; conditions: 10 µM, dog left ventricular myocytes
Procedure: as §1
The slow delayed rectifier potassium current (IKs) was elicited from the holding potential of -80 mV with a prepulse to -40 mV. The IKs tail current was measured at a post pulse to -40 mV after 5-second-long test pulses from − 20 mV to 50 mV using 10 mV increments at the pulsing cycle length of 10 s (see inset of Fig. 4B). The effect of SZV-2649 was investigated at the concentration of 10 µM.
Ventricular myocytes from Beagle dogs were enzymatically dissociated as described in detail previously. […]
as §3
(§4) The inward rectifier (IK1), the transient outward (Ito), the rapid (IKr) and the slow (IKs) delayed rectifier potassium currents were recorded in HEPES-buffered Tyrode’s solution. […] When IKr was recorded, IKs was inhibited by using the selective IKs blocker HMR-1556 (0.5 µM). […]

[4] = system: inward rectifier potassium (IK1) current; experiment: Whole-cell patch-clamp, steady state current-voltage relation in dog ventricular myocytes; format: cell-based; conditions: 10 µM, dog left ventricular myocytes
From the text: as §1
Figure 4D represents the steady state current-voltage relation after 300 ms pulses from − 100 mV to 60 mV using 10 mV increments applying 3-second pulsing cycle length from the holding potential of -90 mV.
as §2, §3, §4

[5] = system: conscious dogs; experiment: Basic ECG parameters in conscious dogs; format: in vivo, dog
Procedure: The effects of SZV-2649 on the basic ECG parameters in conscious dogs were investigated. […] Beagle dogs of either sex weighing 12–14 kg were used for the experiments. ECG measurements were taken in conscious animals using the standard I-III leads. QTc was calculated using the Van de Water’s formula[61]. SZV-2649 (10 mg/kg) was applied by i.v. or oral administration.

[6] = system: dog right ventricular muscle preparations; experiment: Conventional microelectrode action potential recording, dog ventricular muscle; conditions: 10 µM
[7] = intravenous 10 mg/kg, 30 min after administration, n = 6
[8] = per os 10 mg/kg, 1 h after administration, n = 7

CC(N)COc1c(I)cc(C#N)cc1I.Cl (centres unmarked) [SZV-2649, 4-(2-aminopropoxy)-3,5-diiodobenzonitrile hydrochloride]
Effect on magnitude of INaL [1]: significantly decreased
Effect on magnitude of ICaL [2]: moderately but significantly decreased
Effect on amplitude of IKs tail current [3]: did not change or only minimally decreased
Effect on inward rectifier potassium (IK1) current, steady state current-voltage relation [4]: no discernible effects
PQ [5, 7]: 150.6 ± 15.8 ms
QRS [5, 7]: 52.2 ± 3.2 ms
QT [5, 7]: 234.5 ± 5.6 ms
RR [5, 7]: 756.1 ± 29.4 ms
QTC ([5]; intravenous 10 mg/kg, 30 min after administration, n = 6, Van de Water's formula): 255.7 ± 6.3 ms
PQ [5, 8]: 119.8 ± 7.5 ms
QRS [5, 8]: 47.9 ± 2.4 ms
QT [5, 8]: 215.0 ± 7.5 ms
RR [5, 8]: 596.2 ± 44.0 ms
QTC ([5]; per os 10 mg/kg, 1 h after administration, n = 7, Van de Water's formula): 250.1 ± 7.0 ms
melting point: 216 to 219 °C
Onset kinetics of Vmax block ([6]; after 1 min rest, stimulation cycle length 400 ms): 3.1
Effect on Vmax as a function of stimulation cycle length ([6]; dog ventricular muscle, steady-state stimulation): decreased Vmax at cycle lengths shorter than 2000 ms
